Converted amounts (≈) assume the structure as drawn. Where two headings read alike, the source gives them in different places.
Legend:
[1] = test system: Staphylococcus aureus X1.1; assay: MIC, standard agar-dilution assay, Staphylococcus aureus X1.1; type: cell-based
[2] = test system: Staphylococcus aureus V41; assay: MIC, standard agar-dilution assay, Staphylococcus aureus V41; type: cell-based
[3] = test system: Staphylococcus aureus X400; assay: MIC, standard agar-dilution assay, Staphylococcus aureus X400; type: cell-based
[4] = test system: Staphylococcus aureus S13E; assay: MIC, standard agar-dilution assay, Staphylococcus aureus S13E; type: cell-based
[5] = test system: Staphylococcus epidermidis EPI1; assay: MIC, standard agar-dilution assay, Staphylococcus epidermidis EPI1; type: cell-based
[6] = test system: Staphylococcus epidermidis EPI2; assay: MIC, standard agar-dilution assay, Staphylococcus epidermidis EPI2; type: cell-based; conditions: Staphylococcus epidermidis EPI2, agar dilution
[7] = test system: Streptococcus pyogenes C203; assay: MIC, standard agar-dilution assay, Streptococcus pyogenes C203; type: cell-based
[8] = test system: Streptococcus pneumoniae Park I; assay: microbe, parasite or virus in culture; type: cell-based; conditions: Streptococcus pneumoniae Park I, agar dilution
[9] = test system: Streptococcus Group D X66; assay: MIC, standard agar-dilution assay, Streptococcus Group D X66; type: cell-based; conditions: Streptococcus Group D X66, agar dilution
[10] = test system: Streptococcus Group 9960; assay: MIC, standard agar-dilution assay, Streptococcus Group 9960; type: cell-based; conditions: Streptococcus Group 9960, agar dilution
[11] = test system: Haemophilus influenzae Holt; assay: MIC, standard agar-dilution assay, Haemophilus influenzae Holt; type: cell-based; conditions: Haemophilus influenzae Holt; ampicillin-sensitive strain; agar dilution
[12] = test system: Haemophilus influenzae R252; assay: MIC, standard agar-dilution assay, Haemophilus influenzae R252; type: cell-based; conditions: Haemophilus influenzae R252; ampicillin-resistant strain; agar dilution
[13] = test system: Staphylococcus aureus; assay: MIC, broth-dilution microtiter test, Staphylococcus aureus; type: cell-based; conditions: broth-dilution microtiter
From the text: (§1) The MIC's in Table X were obtained using conventional broth-dilution microtiter tests.

[14] = test system: Streptococcus bovis 80; assay: MIC, broth-dilution microtiter test, Streptococcus bovis 80; type: cell-based; conditions: Streptococcus bovis 80, broth-dilution microtiter
From the text: as §1

[15] = test system: Pasteurella multocida 17E; assay: MIC, broth-dilution microtiter test, Pasteurella multocida 17E; type: cell-based
From the text: as §1

[16] = test system: Pasteurella multocida 60A; assay: MIC, broth-dilution microtiter test, Pasteurella multocida 60A; type: cell-based
From the text: as §1

[17] = test system: Pasteurella hemolytica 22C; assay: MIC, broth-dilution microtiter test, Pasteurella hemolytica 22C; type: cell-based; conditions: Pasteurella hemolytica 22C, broth-dilution microtiter
From the text: as §1

[18] = test system: Mycoplasma gallisepticum; assay: MIC, broth-dilution microtiter test, Mycoplasma gallisepticum; type: cell-based; conditions: Mycoplasma gallisepticum, broth-dilution microtiter
From the text: as §1

[19] = test system: Mycoplasma synoviae; assay: MIC, broth-dilution microtiter test, Mycoplasma synoviae; type: cell-based; conditions: Mycoplasma synoviae, broth-dilution microtiter
From the text: as §1

[20] = test system: Mycoplasma hyorhinis; assay: MIC, broth-dilution microtiter test, Mycoplasma hyorhinis; type: cell-based; conditions: Mycoplasma hyorhinis, broth-dilution microtiter
From the text: as §1

[21] = test system: Mycoplasma hyopneumoniae; assay: MIC, broth-dilution microtiter test, Mycoplasma hyopneumoniae; type: cell-based; conditions: Mycoplasma hyopneumoniae, broth-dilution microtiter
From the text: as §1

[22] = test system: Streptococcus pyogenes C203; assay: In vivo protection of mice experimentally infected with S. pyogenes C203; conditions: mice, doses given 1 and 4 hours post-infection; for ED50: Streptococcus pyogenes
Method: The C-20 modified derivatives of this invention have shown in vivo antimicrobial activity against experimentally-induced infections in laboratory animals. When two doses of test compound were administered to mice experimentally infected with S. pyogenes C203, the activity observed was measured as an ED50 value [effective dose in mg/kg to protect 50% of the test animals: see Warren Wick, et al., J. Bacteriol. 81, 233-235 (1961)].

[23] = test system: Pasteurella multocida; assay: Oral (gavage) treatment of Pasteurella multocida-infected chicks; type: in vivo, one-day-old chicks
Method: Many of the C-20 modified derivatives of this invention have also shown in vivo antibacterial activity against infections induced by gram-negative bacteria. Tables XII and XIII summarize the results of tests in which illustrative compounds were evaluated against Pasteurella infection in one-day-old chicks. The compounds were administered parenterally or orally after challenge of the chicks with Pasteurella multocida (0.1 ml of a 10^-4 dilution of a twenty-hour tryptose broth culture of an avian P. multocida given subcutaneously). In these tests, unless indicated otherwise, all non-medicated infected chicks died within 24 hours of Pasteurella challenge. In the tests summarized in Table XII the compounds were administered by subcutaneous injection at a dosage of 30 mg/kg, 1 and 4 hours post-challenge of the chicks with P. multocida. In the test summarized in Table XIII the compounds were administered by gavage at 1 and 5 hours post-challenge of the chicks with P. multocida.

[24] = Staphylococcus aureus X1.1, agar dilution
[25] = Staphylococcus aureus V41, penicillin-resistant strain, agar dilution
[26] = Staphylococcus aureus X400, methicillin-resistant strain, agar dilution
[27] = Staphylococcus aureus S13E, agar dilution
[28] = Staphylococcus epidermidis EPI1, agar dilution
[29] = Streptococcus pyogenes C203, agar dilution
[30] = Pasteurella multocida 17E, bovine isolate, broth-dilution microtiter
[31] = Pasteurella multocida 60A, avian isolate, broth-dilution microtiter

## CCC1OC(=O)CC(O)C(C)C(OC2OC(C)C(O)C(N(C)C)C2O)C(CCOc2ccccc2)CC(C)C(=O)C=CC(C)=CC1COC1OC(C)C(O)C(O)C1OC (stereo not drawn) [Compound 58, 20-DH-20-O-Phenyllactenocin]
[1]; [24]
  MIC: 0.25 µg/mL (≈ 0.299 µM)
[2]; [25]
  MIC: 0.25 µg/mL (≈ 0.299 µM)
[3]; [26]
  MIC: 0.25 µg/mL (≈ 0.299 µM)
[4]; [27]
  MIC: 0.25 µg/mL (≈ 0.299 µM)
[5]; [28]
  MIC: 0.25 µg/mL (≈ 0.299 µM)
[6]
  MIC: 0.25 µg/mL (≈ 0.299 µM)
[7]; [29]
  MIC: 0.06 µg/mL (≈ 0.0718 µM)
[8]
  MIC: 0.25 µg/mL (≈ 0.299 µM)
[9]
  MIC: 4 µg/mL (≈ 4.78 µM)
[10]
  MIC: 8 µg/mL (≈ 9.57 µM)
[11]
  MIC: 32 µg/mL (≈ 38.3 µM)
[12]
  MIC: 16 µg/mL (≈ 19.1 µM)
[13]
  MIC: 0.39 µg/mL (≈ 0.466 µM)
[14]
  MIC: 1.56 µg/mL (≈ 1.87 µM)
[15]; [30]
  MIC: 25 µg/mL (≈ 29.9 µM)
[16]; [31]
  MIC: 12.5 µg/mL (≈ 15 µM)
[17]
  MIC: 25 µg/mL (≈ 29.9 µM)
[18]
  MIC: 0.78 µg/mL (≈ 0.933 µM)
[19]
  MIC: 6.25 µg/mL (≈ 7.48 µM)
[20]
  MIC: 50 µg/mL (≈ 59.8 µM)
[21]
  MIC: 6.25 µg/mL (≈ 7.48 µM)
[22]; oral
  ED50, Oral: 50 mg/kg × 2
[22]; subcutaneous
  ED50, Subcutaneous: 3.2 mg/kg × 2

## CCC1OC(=O)CC(O)C(C)C(OC2OC(C)C(O)C(N(C)C)C2O)C(CCOc2ccc(-c3ccccc3)cc2)CC(C)C(=O)C=CC(C)=CC1COC1OC(C)C(O)C(OC)C1OC (stereo not drawn) [Compound 41, 20-DH-20-O-(p-Phenylphenyl)desmycosin]
[1]; [24]
  MIC: 0.5 µg/mL (≈ 0.54 µM)
[2]; [25]
  MIC: 0.25 µg/mL (≈ 0.27 µM)
[3]; [26]
  MIC: 0.5 µg/mL (≈ 0.54 µM)
[4]; [27]
  MIC: 0.25 µg/mL (≈ 0.27 µM)
[5]; [28]
  MIC: 0.5 µg/mL (≈ 0.54 µM)
[6]
  MIC: 0.25 µg/mL (≈ 0.27 µM)
[7]; [29]
  MIC: 0.25 µg/mL (≈ 0.27 µM)
[8]
  MIC: 0.25 µg/mL (≈ 0.27 µM)
[9]
  MIC: 0.5 µg/mL (≈ 0.54 µM)
[10]
  MIC: 0.5 µg/mL (≈ 0.54 µM)
[11]
  MIC: 16 µg/mL (≈ 17.3 µM)
[12]
  MIC: 16 µg/mL (≈ 17.3 µM)
[13]
  MIC: 0.19 µg/mL (≈ 0.205 µM)
[14]
  MIC: 0.39 µg/mL (≈ 0.421 µM)
[15]; [30]
  MIC: 12.5 µg/mL (≈ 13.5 µM)
[16]; [31]
  MIC: 12.5 µg/mL (≈ 13.5 µM)
[17]
  MIC: 25 µg/mL (≈ 27 µM)
[18]
  MIC: < 0.05 µg/mL
[19]
  MIC: 0.39 µg/mL (≈ 0.421 µM)
[20]
  MIC: 3.12 µg/mL (≈ 3.37 µM)
[21]
  MIC: 3.12 µg/mL (≈ 3.37 µM)
[22]; oral
  ED50, Oral: 25 mg/kg × 2
[22]; subcutaneous
  ED50, Subcutaneous: > 10 mg/kg × 2

## CCC1OC(=O)CC(O)C(C)C(OC2OC(C)C(O)C(N(C)C)C2O)C(CCSc2ccccc2)CC(C)C(=O)C=CC(C)=CC1COC1OC(C)C(O)C(OC)C1OC (stereo not drawn) [Compound 23, 20-DH-DO-20-(phenylthio)desmycosin]
[1]; Staphylococcus aureus, X1.1
  MIC: 0.25 µg/mL (≈ 0.289 µM)
[2]; Staphylococcus aureus, V41
  MIC: 0.25 µg/mL (≈ 0.289 µM)
[3]; Staphylococcus aureus, X400
  MIC: 0.25 µg/mL (≈ 0.289 µM)
[4]; Staphylococcus aureus, S13E
  MIC: 0.25 µg/mL (≈ 0.289 µM)
[5]; Staphylococcus epidermidis, EPI1
  MIC: 0.25 µg/mL (≈ 0.289 µM)
[6]; read-out: MIC
  MIC: 0.12 µg/mL (≈ 0.139 µM)
[7]; Streptococcus pyogenes, C203
  MIC: 0.25 µg/mL (≈ 0.289 µM)
[8]; read-out: MIC
  MIC: 2 µg/mL (≈ 2.31 µM)
[9]; read-out: MIC
  MIC: 8 µg/mL (≈ 9.24 µM)
[10]; GROUP9960, read-out: MIC
  MIC: 16 µg/mL (≈ 18.5 µM)
[13]; read-out: MIC
  MIC: 0.19 µg/mL (≈ 0.219 µM)
[14]; Streptococcus equinus, read-out: MIC
  MIC: 6.25 µg/mL (≈ 7.22 µM)
[15]; Pasteurella multocida, 17E
  MIC: 12.5 µg/mL (≈ 14.4 µM)
[16]; Pasteurella multocida, 60A
  MIC: 12.5 µg/mL (≈ 14.4 µM)
[17]; read-out: MIC
  MIC: 25 µg/mL (≈ 28.9 µM)
[18]; Mycoplasmoides gallisepticum, read-out: MIC
  MIC: 0.09 µg/mL (≈ 0.104 µM)
[19]; Mycoplasmopsis synoviae, read-out: MIC
  MIC: 6.25 µg/mL (≈ 7.22 µM)
[20]; read-out: MIC
  MIC: > 50 µg/mL
[21]; Mesomycoplasma hyopneumoniae, read-out: MIC
  MIC: > 25 µg/mL
[22]; C203, sc, subcutaneous, read-out: ED50, Subcutaneous
  ED50: 10 mg/kg
[22]; C203, oral, read-out: ED50, Oral
  ED50: 17 mg/kg
[23]; 0.5 g/gal equivalent
  Number of Deaths/Number tested: 8/10
[23]; 1.0 g/gal equivalent
  Number of Deaths/Number tested: 10/10

Source: patent publication US4443436A, “C-20-Modified macrolide derivatives of the macrolide antibiotics tylosin, desmycosin, macrocin, and lactenocin” (Eli Lilly and Company, priority 1982, dated 1984)
